Measurements reported in patent US8012998B2, “Pyrrolidine aryl-ether as NK-3 receptor antagonists” (Hoffmann—LA Roche Inc., priority 2007, dated 2011).

Each compound was assayed against T1, human NK3 receptor (Homo sapiens, UniProt P29371) (assay: [3H]SR142801 competition binding assay (hNK3 receptor binding)). Conditions: [3H]SR142801 radioligand; membranes from HEK293 cells transiently expressing recombinant human NK3 receptor; Ki by Cheng-Prussoff; read-out: KiNK3 h.
T1 construct: expressed in transfected cells; host or cells: HEK293 cells (transient expression), membrane preparation
T1 sequence (P29371 1-465): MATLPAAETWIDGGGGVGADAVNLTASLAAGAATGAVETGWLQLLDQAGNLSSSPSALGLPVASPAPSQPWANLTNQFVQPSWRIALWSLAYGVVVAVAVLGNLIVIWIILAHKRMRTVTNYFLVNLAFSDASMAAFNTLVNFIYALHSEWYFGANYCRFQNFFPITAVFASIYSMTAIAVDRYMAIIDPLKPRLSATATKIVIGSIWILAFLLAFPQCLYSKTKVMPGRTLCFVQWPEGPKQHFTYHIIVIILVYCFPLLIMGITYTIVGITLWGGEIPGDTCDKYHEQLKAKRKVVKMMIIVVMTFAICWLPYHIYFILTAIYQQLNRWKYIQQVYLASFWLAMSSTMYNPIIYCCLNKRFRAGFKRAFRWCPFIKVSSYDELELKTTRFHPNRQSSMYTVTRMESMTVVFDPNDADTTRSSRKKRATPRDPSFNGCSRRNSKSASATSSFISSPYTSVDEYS
Description: [^3H]SR^142801 Competition Binding Assay
hNK3 receptor binding experiment were performed using [^3H]SR^142801 (Catalog No. TRK1035, specific activity: 74.0 Ci/mmol, Amersham, GE Healthcare UK limited, Buckinghamshire, UK) and membrane isolated from HEK293 cells transiently expressing recombinant human NK3 receptor. After thawing, the membrane homogenates were centrifuged at 48,000×g for 10 min at 4° C., the pellets were resuspended in the 50 mM Tris-HCl, 4 mM MnCl2, 1 μM phosphoramidon, 0.1% BSA binding buffer at pH 7.4 to a final assay concentration of 5 μg protein/well. […] At the end of the incubation, membranes were filtered onto unitfilter (96-well white microplate with bonded GF/C filter preincubated 1 h in 0.3% PEI +0.3% BSA, Packard BioScience, Meriden, Conn.) with a Filtermate 196 harvester (Packard BioScience) and washed 4 times with ice-cold 50 mM Tris-HCl, pH 7.4 buffer. Nonspecific binding was measured in the presence of 10 μM SB222200 for both radioligands. The radioactivity on the filter was counted (5 min) on a Packard Top-count microplate scintillation counter with quenching correction after addition of 45 μl of microscint 40 (Canberra Packard S.A., Zutrich, Switzerland) and shaking for 1 h. Inhibition curves were fitted according to the Hill equation: y=100/(1+(x/IC50)^nH), where nH=slope factor using Excel-fit 4 software (Microsoft). IC50 values were derived from the inhibition curve and the affinity constant (Ki) values were calculated using the Cheng-Prussoff equation Ki=IC50/(1+[L]/KD) where [L] is the concentration of radioligand and KD is its dissociation constant at the receptor, derived from the saturation isotherm. All experiments were performed in duplicate and the mean ± standard error (SEM) of the individual Ki values was calculated.

Row | Ki | Structure (SMILES)
1 | 11.8 nM | Cc1ncc(C(=O)N2C[C@@H]([C@@H](C)Oc3ccc(Cl)cn3)[C@H](c3ccc(Cl)c(Cl)c3)C2)cn1 (racemic) [Example 17, [(3SR,4RS)-3-[(RS)-1-(5-Chloro-pyridin-2-yloxy)-ethyl]-4-(3,4-dichloro-phenyl)-pyrrolidin-1-yl]-(2-methyl-pyrimidin-5-yl)-methanone]
2 | 3.2 nM | C[C@H](Oc1ccc(C(F)(F)F)cn1)[C@H]1CN(C(=O)c2ccnc(Cl)c2)C[C@@H]1c1ccc(Cl)c(Cl)c1 (racemic) [Example 82, (2-Chloro-pyridin-4-yl)-{(3SR,4RS)-3-(3,4-dichloro-phenyl)-4-[(SR)-1-(5-trifluoromethyl-pyridin-2-yloxy)-ethyl]-pyrrolidin-1-yl}-methanone]
3 | 22 nM | C[C@H](Oc1ccc(C#N)cn1)[C@H]1CN(C(=O)c2cnc(C3CC3)nc2)C[C@@H]1c1ccc(Cl)c(Cl)c1 [Example 84, 6-{(S)-1[-(3R,4S)-1-(2-Cyclopropyl-pyrimidine-5-carbonyl)-4-(3,4-dichloro-phenyl)-pyrrolidin-3-yl]-ethoxy}-nicotinonitrile]
4 | 46 nM | Cc1ncc(C(=O)N2C[C@H]([C@H](C)Oc3ccc(Cl)cn3)[C@@H](c3ccc(F)c(Cl)c3)C2)cn1 [Example 101, {(3S,4R)-3-(3-Chloro-4-fluoro-phenyl)-4-[(S)-1-(5-chloro-pyridin-2-yloxy)-ethyl]-pyrrolidin-1-yl}-(2-methyl-pyrimidin-5-yl)-methanone]
5 | 14.7 nM | Cc1ccc(C(=O)N2C[C@H]([C@H](C)Oc3ccc(C#N)cn3)[C@@H](c3ccc(Cl)c(Cl)c3)C2)cn1 (racemic) [Example 68, 6-{(SR)-1-[(3RS,4SR)-4-(3,4-Dichloro-phenyl)-1-(6-methyl-pyridine-3-carbonyl)-pyrrolidin-3-yl]-ethoxy}-nicotinonitrile]
6 | 2 nM | C[C@@H](Oc1ccc(Cl)cn1)[C@@H]1CN(C(=O)c2ccc(C#N)nc2)C[C@H]1c1ccc(Cl)c(Cl)c1 (racemic) [Example 35, 5-[(3SR,4RS)-3-[(RS)-1-(5-Chloro-pyridin-2-yloxy)-ethyl]-4-(3,4-dichloro-phenyl)-pyrrolidine-1-carbonyl]-pyridine-2-carbonitrile]
7 | 0.5 nM | C[C@H](Oc1ccc(C#N)cn1)[C@H]1CN(C(=O)c2ccc(S(=O)(=O)N(C)C)nc2)C[C@@H]1c1ccc(Cl)c(Cl)c1 (racemic) [Example 58, 5-[(3RS,4SR)-3-[(SR)-1-(5-Cyano-pyridin-2-yloxy)-ethyl]-4-(3,4-dichloro-phenyl)-pyrrolidine-1-carbonyl]-pyridine-2-sulfonic acid dimethylamide]
8 | 33.8 nM | Cc1ccnc(C(=O)N2C[C@H]([C@H](C)Oc3ccc(C#N)cn3)[C@@H](c3ccc(Cl)c(Cl)c3)C2)c1 (racemic) [Example 92, 6-{(SR)-1-[(3RS,4SR)-4-(3,4-Dichloro-phenyl)-1-(4-methyl-pyridine-2-carbonyl)-pyrrolidin-3-yl]-ethoxy}-nicotinonitrile]
9 | 27.2 nM | Cc1cc(C(=O)N2C[C@H]([C@H](C)Oc3ccc(C#N)cn3)[C@@H](c3ccc(Cl)c(Cl)c3)C2)c(Cl)nn1 (racemic) [Example 78, 6-{(SR)-1-[(3RS,4SR)-1-(3-Chloro-6-methyl-pyridazine-4-carbonyl)-4-(3,4-dichloro-phenyl)-pyrrolidin-3-yl]-ethoxy}-nicotinonitrile]
10 | 78.7 nM | C[C@@H](Oc1ccc(Cl)cn1)[C@@H]1CN(C(=O)c2cnc(S(C)(=O)=O)nc2)C[C@H]1c1ccc(Cl)c(Cl)c1 (racemic) [Example 51, [(3SR,4RS)-3-[(RS)-1-(5-Chloro-pyridin-2-yloxy)-ethyl]-4-(3,4-dichloro-phenyl)-pyrrolidin-1-yl]-(2-methanesulfonyl-pyrimidin-5-yl)-methanone]
11 | 22.3 nM | C[C@@H](Oc1ccc(Cl)cn1)[C@@H]1CN(C(=O)c2ccc(C#N)cc2)C[C@H]1c1ccc(Cl)c(Cl)c1 (racemic) [Example 49, 4-[(3SR,4RS)-3-[(RS)-1-(5-Chloro-pyridin-2-yloxy)-ethyl]-4-(3,4-dichloro-phenyl)-pyrrolidin-1-carbonyl]-benzonitrile]
12 | 2.6 nM | C[C@H](Oc1ccc(C#N)cn1)[C@H]1CN(C(=O)c2ccc(-n3cccn3)nc2)C[C@@H]1c1ccc(Cl)c(Cl)c1 (racemic) [Example 65, 6-{(SR)-1-[(3RS,4SR)-4-(3 ,4-Dichloro-phenyl)-1-(6-pyrazol-1-yl-pyridine-3-carbonyl)-pyrrolidin-3-yl]-ethoxy}-nicotinonitrile]
13 | 50 nM | C[C@@H](Oc1ccc(Cl)cn1)[C@@H]1CN(C(=O)c2ccc(N(C)C)cc2)C[C@H]1c1ccc(Cl)c(Cl)c1 (racemic) [Example 13, [(3SR,4RS)-3-[(RS)-1-(5-Chloro-pyridin-2-yloxy)-ethyl]-4-(3,4-dichloro-phenyl)-pyrrolidin-1-yl]-(4-dimethylamino-phenyl)-methanone]
14 | 4 nM | Cc1cc(C(=O)N2C[C@H]([C@H](C)Oc3ccc(Cl)cn3)[C@@H](c3ccc(F)cc3)C2)cnn1 [Example 115, [(3R,4S)-3-[(S)-1-(5-Chloro-pyridin-2-yloxy)-ethyl]-4-(4-fluoro-phenyl)-pyrrolidin-1-yl]-(6-methyl-pyridazin-4-yl)-methanone]
15 | 17.7 nM | Cc1cc(C(=O)N2C[C@H]([C@H](C)Oc3ccc(Cl)cn3)[C@@H](c3ccc(F)c(F)c3)C2)c(C)nn1 [Example 113, [(3R,4S)-3-[(S)-1-(5-Chloro-pyridin-2-yloxy)-ethyl]-4-(3,4-difluoro-phenyl)-pyrrolidin-1-yl]-(3,6-dimethyl-pyridazin-4-yl)-methanone]
16 | 24.1 nM | Cc1ncc(C(=O)N2C[C@H]([C@H](C)Oc3ccc(Cl)cn3)[C@@H](c3ccc(Cl)cc3)C2)cn1 [Example 109, {(3S,4R)-3-(4-Chloro-phenyl)-4-[(S)-1-(5-chloro-pyridin-2-yloxy)-ethyl]-pyrrolidin-1-yl}-(2-methyl-pyrimidin-5-yl)-methanone]
17 | 63.6 nM | Cc1ccc(C(=O)N2C[C@@H]([C@@H](C)Oc3ccc(C(F)(F)F)cc3)[C@H](c3ccc(Cl)c(Cl)c3)C2)cn1 (racemic) [Example 6, {(3RS,4SR)-3-(3,4-Dichloro-phenyl)-4-[(RS)-1-(4-trifluoromethyl-phenoxy)-ethyl]-pyrrolidin-1-yl}-(6-methyl-pyridin-3-yl)-methanone]
18 | 20.9 nM | C[C@H](Oc1ccc(C#N)cn1)[C@H]1CN(C(=O)c2ccc(C(F)(F)F)nc2)C[C@@H]1c1ccc(Cl)c(Cl)c1 (racemic) [Example 72, 6-{(SR)-1-[(3RS,4SR)-4-(3,4-Dichloro-phenyl)-1-(6-trifluoromethyl-pyridine-3-carbonyl)-pyrrolidin-3-yl]-ethoxy}-nicotinonitrile]
19 | 1.9 nM | C[C@@H](Oc1ccc(Cl)cn1)[C@@H]1CN(C(=O)c2ccc(CCN3CCCC3)nc2)C[C@H]1c1ccc(Cl)c(Cl)c1 (racemic) [Example 46, [(3SR,4RS)-3-[(RS)-1-(5-Chloro-pyridin-2-yloxy)-ethyl]-4-(3,4-dichloro-phenyl)-pyrrolidin-1-yl]-[6-(2-pyrrolidin-1-yl-ethyl)-pyridin-3-yl]-methanone]
20 | 31.6 nM | Cc1ncc(C(=O)N2C[C@@H]([C@@H](C)Oc3ccc(Cl)cn3)[C@@H](c3ccc(Cl)c(Cl)c3)C2)c(C)n1 (racemic) [Example 37]
21 | 35.5 nM | C[C@@H](Oc1ccc(C(F)(F)F)cc1)[C@@H]1CN(C(=O)c2ccc(C#N)cc2)C[C@H]1c1ccc(Cl)c(Cl)c1 (racemic) [Example 2, 4-{(3RS,4SR)-3-(3,4-Dichloro-phenyl)-4-[(RS)-1-(4-trifluoromethyl-phenoxy)-ethyl]-pyrrolidine-1-carbonyl}-benzonitrile]
22 | 2.8 nM | Cc1cc(C(=O)N2C[C@H]([C@H](C)Oc3ccc(Cl)cn3)[C@@H](c3ccc(Cl)cc3)C2)cnn1 [Example 108, {(3S,4R)-3-(4-Chloro-phenyl)-4-[(S)-1-(5-chloro-pyridin-2-yloxy)-ethyl]-pyrrolidin-1-yl}-(6-methyl-pyridazin-4-yl)-methanone]
